Assay results published in US7615244B2, “Glycopeptide and peptide having a kokumi taste imparting function, and method of imparting the kokumi taste to foods” (Ajinomoto Co., Inc., priority 2003, dated 2009).
Marks after values point to notes of the source that are not given here.

What was measured:
[1] = Organoleptic evaluation of beef extract solution, paired comparison test; set-up: key to Kokumi taste vs control (mark): Δ: Equal or inferior in the kokumi taste to the control; O: Stronger in the kokumi taste than the control; OO: Remarkably stronger in the kokumi taste than the control; conditions: for Kokumi taste vs control (mark): 14 panelists
Description: In order to verify a taste improving function for a commercially available beef extract (manufactured by Bordon), the three glycopeptides and peptide were each added in an amount of 10 ppb by weight to a beef extract solution formulated according to the mixing ratio shown in the following Table 6, and then an organoleptic evaluation was performed in the same manner as in Example 1. Each resulting solution was subjected to organoleptic evaluation by 16 taste panelists according to a paired comparison test, using the non-added beef extract solution as the control. […]
In order to verify a taste improving function for a commercially available beef extract (manufactured by Bordon) in the same manner as in the organoleptic evaluation of Example 1, the glycopeptides and peptides listed in the following Table 15, were each added in an amount of 10 ppb, 1 ppm, or 100 ppm by weight to beef extract solutions formulated according to the mixing ratio shown in Table 6 above. Each resulting solution was subjected to organoleptic evaluation by 14 taste panelists according to a paired comparison test, using the non-added beef extract solution as the control.

[2] = Organoleptic evaluation of chicken consommé soup, paired comparison test by taste panelists; conditions: for Panelists choosing the sample as the one with a stronger kokumi taste: vs non-added soup, n = 16
Description: 2 g of a commercially available chicken consommé soup (manufactured by Ajinomoto Co., Inc.) was added to 100 mL of water to prepare a chicken consommé soup, and then each of the fractions was added to the chicken consommé soup. […] These two fractions were each again fractionated by reversed phase HPLC (“Carbon-500” manufactured by Tosoh Corporation). The following conditions were used to obtain two peaks at 44.8 minutes and 46.6 minutes. For the fractionation, two solvents A and B were used. Solvent A was a 0.05% by volume trifluoroacetic acid (TFA) aqueous solution, and Solvent B was a 0.05% by volume TFA 50% by volume acetonitrile aqueous solution. The column was equilibrated with Solvent A. After injecting a sample, the proportion of Solvent B was increased linearly to 100% in 167 min. The fractionated two peaks were analyzed with an LC-MS/MS (liquid chromatography-tandem mass spectrometry), to confirm that the former peak had fragments, that is, [M+H]^+=m/z 1640, 1494, 1478, 1362, 1332, 1316, 1200, 1184, 1038, 876, 819, 673, and 470, and that the latter peak had fragments, that is, [M+H]^+=m/z 1478, 1346, 1332, 1316, 1200, 1184, 1038, 876, 819, 673, and 470. Further, the former and latter peaks were analyzed by some known methods of analysis such as NMR, a peptide sequencer, an enzymatic decomposition treatment, and the like (R.Takahashi, “Biochemical Experiment Methods 23: Method for Studying Glycoprotein Sugar Chain,” published by Gakkai Shuppan Center, 1989), to confirm that the peaks were due to the glycopeptides having the structures represented by Sequence formulas (I) (SEQ ID NO: 1) and (II) (SEQ ID NO: 1), respectively.
In order to confirm the kokumi taste imparting function and the threshold value of the glycopeptides and the peptide represented by Sequence formulas (I) to (III) (SEQ ID NO: 1) (hereinafter, the glycopeptides and the peptide represented by Sequence formulas (I) to (III) may also be referred to as Glycopeptide I, Glycopeptide II, and Peptide III, respectively), Glycopeptide I and Glycopeptide II were each added to a chicken consommé soup in such that the concentration thereof would be 0.1 ppb to 1.0 ppm by weight upon eating, and Peptide III was added to the chicken consommé soup in such that the concentration thereof would be 0.1 ppb to 100 ppm by weight upon eating. As a control, a non-added chicken consommé soup was prepared. For each of the three glycopeptides and peptide, organoleptic evaluation was carried out by 16 taste panelists according to a paired comparison test (the panelists should choose one with a stronger kokumi taste). In the above organoleptic evaluation, there was a significant difference in the effect caused by adding Glycopeptide I or II or Peptide III in the case where the concentration thereof was 1 ppb by weight or more upon eating. Therefore, the lower limit of the threshold value was set to 1 ppb by weight.

[3] = Organoleptic evaluation of Mentsuyu, paired comparison test; conditions: added 1 ppb by weight; vs non-added; n = 16
Excerpt: In order to verify a taste improving function for “Mentsuyu” (a soup for Japanese noodle) in the same manner as in the organoleptic evaluation of Example 1, the three glycopeptides and peptide were each added in an amount of 1 ppb by weight to Mentsuyu prepared according to the formulation shown in the following Table 2. Each resulting solution was subjected to organoleptic evaluation by 16 taste panelists according to a paired comparison test, using non-added Mentsuyu as the control.
In order to verify the taste improving function of a liquid comprising enzymatically decomposed wheat gluten, that is, a seasoning containing the three glycopeptides and peptide, for Mentsuyu, the seasoning comprising enzymatically decomposed wheat gluten (that is, the decolorized liquid of Example 1 from which the activated carbon had been removed) was added in an amount of 0.1% by volume to Mentsuyu prepared according to the formulation shown in Table 2, and then an organoleptic evaluation was performed in the same manner as in Example 1. Organoleptic evaluation was carried out by 20 taste panelists according to a paired comparison test, using the non-added Mentsuyu as the control.

[4] = Organoleptic evaluation of cheese sauce, paired comparison test; conditions: added 1 ppm by weight; vs non-added; n = 14
Description: In order to verify a taste improving function for cheese sauce, the three glycopeptides and peptide were each added in an amount of 1 ppm by weight to a cheese sauce prepared according to the formulation shown in the following Table 4, and then an organoleptic evaluation was performed in the same manner as in Example 1. Each of the sauces added with one of the three glycopeptides and peptide was subjected to organoleptic evaluation by 14 taste panelists according to a paired comparison test, using non-added cheese sauce as the control.
In order to verify the taste improving function of the liquid comprising enzymatically decomposed wheat gluten, that is, a seasoning containing the three glycopeptides and peptide, for cheese sauce, the seasoning comprising enzymatically decomposed wheat gluten (that is, the powdered seasoning of Example 1 formed from the decolorized liquid from which the activated carbon had been removed) was added in an amount of 0.05% by weight to a cheese sauce prepared according to the formulation shown in Table 4, and then an organoleptic evaluation was performed in the same manner as in Example 1. Organoleptic evaluation was carried out by 20 taste panelists according to a paired comparison test, using the non-added cheese sauce as the control.

Substance	Kokumi taste vs control (mark) ([1]; added 1 ppm by weight)	Kokumi taste vs control (mark) ([1]; added 10 ppb by weight)	Kokumi taste vs control (mark) ([1]; added 100 ppm by weight)	Panelists choosing the sample as the one with a stronger kokumi taste ([2]; amount added 0.1 ppb)	Panelists choosing the sample as the one with a stronger kokumi taste ([2]; amount added 1.0 ppb)	Panelists choosing the sample as the one with a stronger kokumi taste ([2]; amount added 1.0 ppm)	Panelists choosing the sample as the one with a stronger kokumi taste ([2]; amount added 10 ppb)	Panelists choosing the sample as the one with a stronger kokumi taste ([2]; amount added 100 ppm)	Lower limit of the threshold value (kokumi taste imparting function) ([2]; concentration upon eating giving a significant difference vs non-added soup)	Stronger kokumi taste (panelists) [3]	Stronger kokumi taste (panelists) [4]	Stronger kokumi taste (panelists) ([1]; added 10 ppb by weight, vs non-added, n = 16)
Asn-His-Thr	◯◯	◯	◯◯									
Val-Gln [reference compound]	Δ	Δ	Δ									
Val-Asn [reference compound]	Δ	Δ	Δ									
Asn-His	◯	◯	◯◯									
His-Ser [reference compound]	Δ	Δ	Δ									
Val-Asn-His-Thr (VNHT; printed: Val-Asn-His-Thr) [Peptide III]	◯◯	◯◯	◯◯	9	13*	16***	14**	16***	1 ppb by weight	13*	12*	13*
Val-Asn-His	◯◯	◯	◯◯									
